pIC50: −log10 of the molar value.

The term pIC50 denotes the negative decadic logarithm of the IC50, by convention in mol/L. Read a high pIC50 as a low IC50.

Assay [1] has as its target T1, hGLUT1 (Homo sapiens, UniProt P11166).
T1 sequence (P11166 1-492): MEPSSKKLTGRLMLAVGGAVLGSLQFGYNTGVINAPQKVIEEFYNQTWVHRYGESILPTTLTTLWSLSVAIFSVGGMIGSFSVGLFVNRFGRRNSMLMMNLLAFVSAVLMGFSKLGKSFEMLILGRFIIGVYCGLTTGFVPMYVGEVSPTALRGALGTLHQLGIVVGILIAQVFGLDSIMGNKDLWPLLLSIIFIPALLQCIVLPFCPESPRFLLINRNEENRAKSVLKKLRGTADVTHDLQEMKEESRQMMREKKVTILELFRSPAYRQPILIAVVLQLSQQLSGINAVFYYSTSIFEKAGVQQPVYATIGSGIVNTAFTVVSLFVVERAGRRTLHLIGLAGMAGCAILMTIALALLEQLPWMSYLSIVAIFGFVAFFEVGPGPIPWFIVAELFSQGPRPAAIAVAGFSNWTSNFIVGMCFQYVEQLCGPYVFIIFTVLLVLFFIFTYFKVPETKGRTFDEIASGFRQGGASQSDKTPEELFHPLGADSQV
As to the kind of experiment: [3H]-2-deoxy-D-glucose uptake inhibition assay in CHO-hGLUT1 cells. It counts as cell-based.

Assay [2] concerns the target T1, hGLUT1. The following applies: known hGLUT1 inhibitors; cited from earlier work.

`O=C(CCc1ccc(O)cc1)c1c(O)cc(O)cc1O[C@@H]1O[C@H](CO)[C@@H](O)[C@H](O)[C@H]1O` [PUG-5, phlorizin] showed a pIC50 in assay [1] of 4.64.

`C=C[C@@]1(C)CC(=O)[C@]2(O)[C@@]3(C)[C@@H](O)CCC(C)(C)[C@@H]3[C@H](O)[C@H](OC(C)=O)[C@@]2(C)O1` [forskolin]: the “LE (ligand efficiency)” value in assay [2] is on record as 0.270 kcal/mol/HA.

`C=C1[C@@H](C)[C@H]2[C@H](Cc3ccccc3)NC(=O)[C@]23OC(=O)/C=C/[C@H](O)CCC[C@@H](C)C/C=C/[C@H]3[C@@H]1O` [cytochalasin B]: in assay [2], the “LE (ligand efficiency)” value is listed as 0.265 kcal/mol/HA.
